Target: T1, Histone deacetylase 8 (Homo sapiens, UniProt Q9BY41)
T1 sequence (Q9BY41 whole entry): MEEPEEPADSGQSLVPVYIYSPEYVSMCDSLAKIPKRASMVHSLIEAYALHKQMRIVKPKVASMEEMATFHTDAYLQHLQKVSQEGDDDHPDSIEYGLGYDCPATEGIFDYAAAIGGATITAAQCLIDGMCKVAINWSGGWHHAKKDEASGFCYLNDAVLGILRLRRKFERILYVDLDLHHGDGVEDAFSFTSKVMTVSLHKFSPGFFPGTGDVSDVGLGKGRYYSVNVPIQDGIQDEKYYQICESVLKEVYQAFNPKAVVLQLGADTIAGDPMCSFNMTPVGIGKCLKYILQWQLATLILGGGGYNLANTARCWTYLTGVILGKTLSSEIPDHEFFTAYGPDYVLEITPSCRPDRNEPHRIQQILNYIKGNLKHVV
Assay: Inhibition of HDAC8 (unknown origin)

Structure (SMILES)	IC50 [µM]
N[C@H](Cc1ccc(Cl)cc1Cl)C(=O)N1Cc2ccccc2C1	0.21
CC(=O)Nc1ccc2c(c1)CN(C(=O)[C@H](N)Cc1ccc(Cl)cc1Cl)C2	0.101
N[C@H](Cc1ccc(Cl)cc1Cl)C(=O)O	410
CNCc1ccc2c(c1)CN(C(=O)[C@H](N)Cc1ccc(Cl)cc1Cl)C2	0.176
N[C@H](Cc1ccc(Cl)cc1Cl)C(=O)NCc1cccs1	3
N[C@H](Cc1ccc(Cl)cc1Cl)C(=O)NCCc1ccc(O)cc1	1.25
C[C@H](NC(=O)[C@H](N)Cc1ccc(Cl)cc1Cl)c1ccccc1	76.4
N[C@H](Cc1ccc(Cl)cc1Cl)C(=O)NCCc1ccc(O)c(O)c1	2.07
N[C@H](Cc1ccccc1)C(=O)N1CCc2ccccc2C1	10.7
C[C@@H](NC(=O)[C@H](N)Cc1ccc(Cl)cc1Cl)c1ccccc1	25.3
N[C@H](Cc1ccc(O)cc1)C(=O)N1CCc2ccccc2C1	21.3
N[C@H](Cc1ccc(Cl)cc1Cl)C(=O)NCCCc1ccccc1	2.01
N[C@H](Cc1ccc(Cl)cc1Cl)C(=O)NCCc1cccnc1	3.85
N[C@H](Cc1ccccc1)C(=O)N1Cc2ccccc2C1	1.15
CNC(=O)[C@H](N)Cc1ccc(Cl)cc1Cl	16.5
N[C@H](Cc1ccc(Cl)cc1Cl)C(=O)NCc1ccccc1	4.28

Structure (SMILES)	IC50 [µM]
N[C@H](Cc1ccc(Cl)cc1Cl)C(=O)NCCc1c[nH]c2ccc(O)cc12	1.77
Nc1ccc2c(c1)CN(C(=O)[C@H](N)Cc1ccc(Cl)cc1Cl)C2	0.13
N[C@H](Cc1ccc(Cl)cc1Cl)C(=O)N1CCc2ccccc2C1	2.06
N[C@H](Cc1ccc(O)cc1)C(=O)N1Cc2ccccc2C1	4.28
CN1CCN(C(=O)[C@H](N)Cc2ccccc2)CC1	11
CNC(=O)c1ccc2c(c1)CN(C(=O)[C@H](N)Cc1ccc(Cl)cc1Cl)C2	0.258
COc1ccc(CNC(=O)[C@H](N)Cc2ccc(Cl)cc2Cl)cc1	16.6
N[C@H](Cc1ccccc1)C(=O)N1CCN(c2ccccc2)CC1	> 600
N[C@H](Cc1ccc(Cl)cc1Cl)C(=O)NC1Cc2ccccc2C1	8.76
N[C@H](Cc1ccc(Cl)cc1Cl)C(=O)NCCc1c[nH]c2ccccc12	0.97
N[C@H](Cc1ccc(Cl)cc1Cl)C(=O)Nc1ccc2[nH]c3ccccc3c2c1	10.5
COc1ccc(NC(=O)[C@H](N)Cc2ccc(Cl)cc2Cl)cc1	2.67
N[C@H](Cc1ccc(Cl)cc1Cl)C(=O)N1Cc2ccc(NC(=O)CCc3ccccc3)cc2C1	0.259
N[C@H](Cc1ccc(Cl)cc1Cl)C(=O)N1Cc2ccc(NC(=O)Cc3ccccc3)cc2C1	0.232
N[C@H](Cc1ccc(Cl)cc1Cl)C(=O)NCCc1ccccc1	2.5

Target: Histone deacetylase 1 (Homo sapiens, UniProt Q13547)
Assay: Inhibition of HDAC1 (unknown origin)

Histone deacetylase 1, sequence (Q13547 whole entry): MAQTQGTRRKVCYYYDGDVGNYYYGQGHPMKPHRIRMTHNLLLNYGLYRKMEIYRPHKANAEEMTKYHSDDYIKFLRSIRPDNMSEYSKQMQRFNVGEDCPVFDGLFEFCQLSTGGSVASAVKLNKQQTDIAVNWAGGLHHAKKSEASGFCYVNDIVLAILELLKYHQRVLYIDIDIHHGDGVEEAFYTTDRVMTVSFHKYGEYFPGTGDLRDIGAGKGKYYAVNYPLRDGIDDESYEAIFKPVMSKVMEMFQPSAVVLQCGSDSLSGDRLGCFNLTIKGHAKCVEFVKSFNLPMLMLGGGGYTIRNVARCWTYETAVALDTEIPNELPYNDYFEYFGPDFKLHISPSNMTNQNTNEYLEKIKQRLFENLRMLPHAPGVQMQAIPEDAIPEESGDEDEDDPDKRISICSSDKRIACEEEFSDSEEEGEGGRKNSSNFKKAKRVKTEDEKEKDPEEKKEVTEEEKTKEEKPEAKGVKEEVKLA

Structure (SMILES)	IC50 [µM]
CC(=O)Nc1ccc2c(c1)CN(C(=O)[C@H](N)Cc1ccc(Cl)cc1Cl)C2	8.8

Target: Histone deacetylase 2 (Homo sapiens, UniProt Q92769)
Assay: Inhibition of HDAC2 (unknown origin)

Histone deacetylase 2, sequence (Q92769 whole entry): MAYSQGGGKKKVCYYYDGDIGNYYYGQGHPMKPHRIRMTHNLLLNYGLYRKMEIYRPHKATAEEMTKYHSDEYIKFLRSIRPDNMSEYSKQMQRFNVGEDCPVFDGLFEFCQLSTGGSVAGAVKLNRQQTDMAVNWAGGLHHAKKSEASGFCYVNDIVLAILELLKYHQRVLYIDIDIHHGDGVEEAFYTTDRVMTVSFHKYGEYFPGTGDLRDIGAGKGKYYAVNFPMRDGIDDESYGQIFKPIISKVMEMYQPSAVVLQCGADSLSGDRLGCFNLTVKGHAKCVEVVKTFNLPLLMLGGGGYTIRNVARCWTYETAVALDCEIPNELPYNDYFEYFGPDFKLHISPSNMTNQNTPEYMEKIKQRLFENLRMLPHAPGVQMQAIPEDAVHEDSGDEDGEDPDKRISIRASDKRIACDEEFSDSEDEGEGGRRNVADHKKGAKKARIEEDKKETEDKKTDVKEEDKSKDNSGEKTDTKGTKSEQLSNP

Structure (SMILES)	IC50 [µM]
CC(=O)Nc1ccc2c(c1)CN(C(=O)[C@H](N)Cc1ccc(Cl)cc1Cl)C2	> 30

Target: T2, Protein deacetylase HDAC6 (Homo sapiens, UniProt Q9UBN7)
T2 sequence (Q9UBN7 whole entry): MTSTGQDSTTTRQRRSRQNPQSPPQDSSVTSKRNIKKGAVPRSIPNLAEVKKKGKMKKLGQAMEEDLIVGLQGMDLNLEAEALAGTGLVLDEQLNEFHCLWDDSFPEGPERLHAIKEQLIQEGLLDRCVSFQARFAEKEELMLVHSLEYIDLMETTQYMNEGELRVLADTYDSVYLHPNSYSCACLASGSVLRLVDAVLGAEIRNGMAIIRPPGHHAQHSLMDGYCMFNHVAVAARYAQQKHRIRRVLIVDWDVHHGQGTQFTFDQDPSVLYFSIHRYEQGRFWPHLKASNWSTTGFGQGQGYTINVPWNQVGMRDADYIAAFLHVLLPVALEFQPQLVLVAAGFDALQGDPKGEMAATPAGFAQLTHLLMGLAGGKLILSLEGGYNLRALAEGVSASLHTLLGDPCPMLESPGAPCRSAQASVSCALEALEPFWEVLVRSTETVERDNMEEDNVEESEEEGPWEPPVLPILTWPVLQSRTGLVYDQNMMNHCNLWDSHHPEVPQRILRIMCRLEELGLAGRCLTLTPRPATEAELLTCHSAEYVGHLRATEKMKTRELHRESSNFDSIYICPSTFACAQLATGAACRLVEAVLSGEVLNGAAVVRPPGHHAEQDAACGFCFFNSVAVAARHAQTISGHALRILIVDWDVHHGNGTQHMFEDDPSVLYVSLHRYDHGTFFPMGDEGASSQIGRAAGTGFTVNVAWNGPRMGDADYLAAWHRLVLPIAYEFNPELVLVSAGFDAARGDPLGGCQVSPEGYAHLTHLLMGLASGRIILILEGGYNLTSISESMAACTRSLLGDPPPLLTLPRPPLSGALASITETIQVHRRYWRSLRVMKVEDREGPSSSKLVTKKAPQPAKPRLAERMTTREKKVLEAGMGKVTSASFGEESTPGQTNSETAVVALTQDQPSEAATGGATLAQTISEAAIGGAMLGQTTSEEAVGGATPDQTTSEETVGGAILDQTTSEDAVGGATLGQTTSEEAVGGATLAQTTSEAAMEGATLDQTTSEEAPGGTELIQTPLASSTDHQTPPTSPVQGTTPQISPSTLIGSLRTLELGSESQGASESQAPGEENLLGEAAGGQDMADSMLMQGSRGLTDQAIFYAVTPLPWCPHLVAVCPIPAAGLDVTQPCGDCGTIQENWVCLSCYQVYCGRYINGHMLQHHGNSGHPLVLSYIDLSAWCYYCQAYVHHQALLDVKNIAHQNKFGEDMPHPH
Assay: Inhibition of HDAC6 (unknown origin)

Structure (SMILES)	IC50 [µM]
CC(=O)Nc1ccc2c(c1)CN(C(=O)[C@H](N)Cc1ccc(Cl)cc1Cl)C2	> 30
